Measured values taken from patent US7875601B2, “Cancer treatment with epothilones” (Novartis AG, priority 1998, dated 2011).

Legend:
[1] = Determination of the single i.v. dose MTD in female BALB/c nude mice; type: in vivo
Method: The Maximal Tolerated Dose (MTD) is determined according to standard procedures; preferably, in warm-blooded animals the MTD in case of oral or intravenous administration is determined as the Dose of a single administration where no death occurs and a loss of body weight of less than 40, preferably less than 25, percent (%) is found in the treated warm-blooded animal individual (this term here mainly referring to an animal; for humans see below).
For the MTD determination, female BALB/c nude mice or BALB/c mice (obtained from Novartis Animal Farm, Sisseln, Switzerland) are treated once intravenously with epothilone B (n=3 per dose group). The dosage is increased (2, 4, 6, 8, 10 and 12 mg/kg) and the mice are observed for the presentation of overt toxic effects for 10 days after drug treatment.

PC-3M (Prostate) = assay: Antiproliferative assay, PC-3M; type: cell-based, human; conditions: 3 d exposure, mean ± SD, read-out: IC50 for growth inhibition
Method: A human androgen-independent prostate cancer cell line is used to establish subcutaneous and orthotopic models in mice. The human metastatic prostate carcinoma PC-3M is obtained from Dr. I. J. Fidler (MD Anderson Cancer Center, Houston, Tex., USA) and is cultured in Ham's F12K media supplemented with 7% v/v FBS. The PC-3M cell line is the result of isolation from liver metastasis produced in nude mice subsequent to intrasplenic injection of PC-3 cells [ATCC CRL 1435; American Type Culture Collection (Rockville, Md., USA)], and they can grow in Eagle's MEM supplemented with 10% fetal bovine serum, sodium pyruvate, non-essential amino acids, L-glutamine, a two-fold vitamin solution (Gibco Laboratories, Long Island, N.Y.) and penicillin-streptomycin (Flow Laboratories, Rockville, Md.). The PC-3M cell line is hormone-insensitive (that is, it grows in the absence of androgens). […] No normal Y chromosomes can be detected by Q-band analysis.
Antiproliferative assays are performed as previously described (Int. J. Cancer 43, 851-6 (1989)). […] After washing, the dye is eluted with 3% v/v HCl and the optical density measured at 665 nm with a SpectraMax 340 (Bucherer, Basel, Switzerland). IC50 values are determined by a computerized system (SoftPro, Bucherer, Basel, Switzerland) using the formula (OD test−OD start)/(OD control−OD start)×100. […]

[2] = tested on: human PC-3M prostate carcinoma cells; assay: Antitumor effect against orthotopically injected PC-3M cells; type: in vivo, male BALB/c nude mice; conditions: for Tumor Response (T/C %) Lymph Nodes / Tumor Response (T/C %) Prostate: day 42
Method: A human androgen-independent prostate cancer cell line is used to establish subcutaneous and orthotopic models in mice. The human metastatic prostate carcinoma PC-3M is obtained from Dr. I. J. Fidler (MD Anderson Cancer Center, Houston, Tex., USA) and is cultured in Ham's F12K media supplemented with 7% v/v FBS. The PC-3M cell line is the result of isolation from liver metastasis produced in nude mice subsequent to intrasplenic injection of PC-3 cells [ATCC CRL 1435; American Type Culture Collection (Rockville, Md., USA)], and they can grow in Eagle's MEM supplemented with 10% fetal bovine serum, sodium pyruvate, non-essential amino acids, L-glutamine, a two-fold vitamin solution (Gibco Laboratories, Long Island, N.Y.) and penicillin-streptomycin (Flow Laboratories, Rockville, Md.). The PC-3M cell line is hormone-insensitive (that is, it grows in the absence of androgens). The PC-3 cell line is androgen receptor negative, as is presumably the derived PC-3M cell line. […] The cells are near-triploid with a modal number of 62 chromosomes. No normal Y chromosomes can be detected by Q-band analysis.
Human prostate carcinoma PC-3M cells (1×10^6 cells per 20 μl phosphate buffered saline) are injected into the left […] of the prostate of each animal (n=6-9/group) according the method previously described (see Stephenson et al., J. Natl. Cancer Inst. 84, 951-7 (1992)). Treatment is started on day 14 after cell injection. At this time point a mean tumor weight of ˜20 mg is established. Epothilone B is administered either once or once weekly. Mice are sacrificed 42 days post tumor inoculation, and the prostates are carefully removed, dissected free of adhering tissue and weighed. […] Mesenteric lymph nodes are examined for the presence of metastases, dissected free of adhering tissue and weighed.
Tumor weight and body weights are monitored once or twice weekly. All treatments are administered intravenously (i.v.) and are initiated 14 days post cell injection. Treatment with epothilone B varies the dose and frequency of administration. Antitumor activity is expressed as T/C % (mean tumor weight of treated animals divided by the mean tumor weight of control animals multiplied by 100).

## C/C(=C\c1csc(C)n1)[C@@H]1C[C@@H]2O[C@]2(C)CCC[C@H](C)[C@H](O)[C@@H](C)C(=O)C(C)(C)[C@@H](O)CC(=O)O1 [epothilone B]
[1]; 2 mg/kg single i.v. bolus
  Body Weight % Change: 4.2 ± 2.1%
  Body Weight Δ (mean g ± SD): 1.0 ± 0.5 g
  Mortalities: 0/3
[1]; 4 mg/kg single i.v. bolus
  Body Weight % Change: −1.7 ± 2.9%
  Body Weight Δ (mean g ± SD): -0.4 ± 0.6 g
  Mortalities: 0/3
[1]; 6 mg/kg single i.v. bolus
  Body Weight % Change: −4.2 ± 2.1%
  Body Weight Δ (mean g ± SD): -1.0 ± 0.5 g
  Mortalities: 0/3
[1]; 8 mg/kg single i.v. bolus
  Body Weight % Change: −16.8 ± 12.2%
  Body Weight Δ (mean g ± SD): -3.8 ± 2.7 g
  Mortalities: 1/3
[1]; 10 mg/kg single i.v. bolus
  Body Weight % Change: −23.7 ± 13.6%
  Body Weight Δ (mean g ± SD): -5.6 ± 3.3 g
  Mortalities: 1/3
[1]; 12 mg/kg single i.v. bolus
  Body Weight % Change: −22.9 ± 3.1%
  Body Weight Δ (mean g ± SD): -5.1 ± 0.6 g
  Mortalities: 3/3
[1]; single dose i.v., nude mice
  MTD: 6 mg/kg
PC-3M (Prostate)
  IC50: 3.82 ± 0.47 nM
[2]; 4 mg/kg, i.v. once per week
  % Body Weight Change: −1 ± 5%
  Survival (No. alive/total): 8/9
  Δ Body Weight: -1.2 ± 2.3 g
  Tumor Response (T/C %) Lymph Nodes: 4%
  Tumor Response (T/C %) Prostate: 2%
[2]; 5 mg/kg, i.v. once per week
  % Body Weight Change: −25 ± 5%
  Survival (No. alive/total): 7/9
  Δ Body Weight: -6.8 ± 1.5 g
  Tumor Response (T/C %) Lymph Nodes: 4%
  Tumor Response (T/C %) Prostate: 1%
[2]; 6 mg/kg, i.v. once
  % Body Weight Change: −6 ± 12%
  Survival (No. alive/total): 9/9
  Δ Body Weight: -1.4 ± 4.1 g
  Tumor Response (T/C %) Lymph Nodes: 4%
  Tumor Response (T/C %) Prostate: 5%
[2]; 8 mg/kg, i.v. once
  % Body Weight Change: −13 ± 15%
  Survival (No. alive/total): 7/9
  Δ Body Weight: -5.2 ± 4.3 g
  Tumor Response (T/C %) Lymph Nodes: 4%
  Tumor Response (T/C %) Prostate: 1%
[2]; in each of the epothilone B treatment groups, all animals in vehicle controls
  animals with detectable metastases: one
